Reference: ChEMBL document CHEMBL1201862, “PubChem BioAssay data set” (2004)
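Assay format: 96-well plates, 48-hour exposure. GI50 = concentration required for 50% inhibition of growth.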 Activity calls are given as the source filed them. No stated cut-off is given here; in the data, active = GI50 up to about 1.1 µM and inactive = higher.

Key:
Assay in all cases: growth of human tumour cells (NCI), 48 h
[1] = system: HT-29
[2] = system: M14
[3] = system: UACC-257
[4] = system: NCI-H226
[5] = system: HCT-15
[6] = system: SK-MEL-28
[7] = system: A549
[8] = system: OVCAR-5
[9] = system: CCRF-CEM
[10] = system: SNB-75
[11] = system: A498
[12] = system: SK-MEL-5
[13] = system: MDA-MB-435
[14] = system: U-251
[15] = system: HOP-62
[16] = system: K562
[17] = system: SK-OV-3
[18] = system: NCI/ADR-RES
[19] = system: NCI-H460
[20] = system: TK-10

Structure (SMILES) | GI50 [1] | GI50 [2] | GI50 [3] | GI50 [4] | GI50 [5] [µM] | GI50 [6] | GI50 [7] | GI50 [8] | GI50 [9] | GI50 [10] | GI50 [11] | GI50 [12] | GI50 [13] | GI50 [14] | GI50 [15] | GI50 [16] | GI50 [17] | GI50 [18] | GI50 [19] | GI50 [20]
O=c1[nH]c2ccc(CC(=S)N3CCN(c4ccccc4)CC3)cc2o1 | > 100 µM (inactive) | > 100 µM (inactive) | > 100 µM (inactive) | > 42 µM (inactive) | 66.2 | > 100 µM (inactive) | 85.3 µM (inactive) | > 100 µM (inactive) | 71.3 µM (inactive) | > 34 µM (inactive) | > 30 µM (inactive) | 48.9 µM (inactive) | 54.5 µM (inactive) | 41.2 µM (inactive) | > 88.5 µM (inactive) | 53.2 µM (inactive) | > 100 µM (inactive) | > 44.5 µM (inactive) | > 100 µM (inactive) | > 100 µM (inactive)
O=C1CC2OCC=C3CN4CCC56c7ccccc7N1C5C2C3CC46O (stereo not drawn) | > 100 µM (inactive) | > 100 µM (inactive) | > 100 µM (inactive) | > 100 µM (inactive) | > 100 | > 100 µM (inactive) | > 100 µM (inactive) | > 100 µM (inactive) | > 100 µM (inactive) | > 100 µM (inactive) | 48.1 µM (inactive) | > 100 µM (inactive) | > 100 µM (inactive) | > 100 µM (inactive) |  | > 100 µM (inactive) | > 100 µM (inactive) | > 100 µM (inactive) | > 100 µM (inactive) | > 100 µM (inactive)
CCOC(=O)c1nc2ccc(C(F)(F)F)cc2nc1Oc1ccc(OC)cc1 | > 100 µM (inactive) | > 100 µM (inactive) | > 100 µM (inactive) | > 100 µM (inactive) | > 100 | > 100 µM (inactive) | > 100 µM (inactive) | > 100 µM (inactive) | > 100 µM (inactive) | > 100 µM (inactive) | > 100 µM (inactive) | > 100 µM (inactive) | > 100 µM (inactive) | > 100 µM (inactive) | > 100 µM (inactive) | > 100 µM (inactive) | > 100 µM (inactive) | > 100 µM (inactive) | > 100 µM (inactive) | > 100 µM (inactive)
CCOC(=O)c1nc2cc(C(F)(F)F)ccc2nc1Nc1ccc(C(=O)OC)s1 | 37.1 µM (inactive) | 37.6 µM (inactive) | 36.5 µM (inactive) | 27 µM (inactive) | 34.2 | 45 µM (inactive) | 48.6 µM (inactive) | > 100 µM (inactive) | 30.6 µM (inactive) | 56.1 µM (inactive) | 40.9 µM (inactive) | 40.5 µM (inactive) | 47.2 µM (inactive) | 29.6 µM (inactive) | 33.6 µM (inactive) | 31.6 µM (inactive) | 47.3 µM (inactive) | 45.5 µM (inactive) | 33 µM (inactive) | 42.8 µM (inactive)
Nc1ncnc2c1ccn2CC=C(CO)CO | > 100 µM (inactive) | > 100 µM (inactive) | > 100 µM (inactive) | 8.07 µM (inactive) | > 100 | > 100 µM (inactive) | > 100 µM (inactive) | > 100 µM (inactive) | > 100 µM (inactive) | > 100 µM (inactive) | > 100 µM (inactive) | > 100 µM (inactive) | > 100 µM (inactive) | > 100 µM (inactive) | > 100 µM (inactive) | > 100 µM (inactive) | > 100 µM (inactive) | > 100 µM (inactive) | > 100 µM (inactive) | > 100 µM (inactive)
Cc1oc2ccccc2c(=O)c1Cn1nnc2ccccc21 | 91.8 µM (inactive) | 80.7 µM (inactive) | 26.4 µM (inactive) | 53.1 µM (inactive) | 96.2 | 74 µM (inactive) | 70.8 µM (inactive) | > 100 µM (inactive) | 95.1 µM (inactive) | 45.6 µM (inactive) | 62.1 µM (inactive) | 20.5 µM (inactive) | 41.3 µM (inactive) | > 100 µM (inactive) | > 100 µM (inactive) | 56.6 µM (inactive) | > 100 µM (inactive) | 60.7 µM (inactive) | 43.8 µM (inactive) | > 100 µM (inactive)
COc1c2ccoc2nc2c(OC)c(OCC(O)C(C)(C)O)ccc12 (stereo not drawn) [EVOXINE] | > 100 µM (inactive) | > 100 µM (inactive) | > 100 µM (inactive) | > 100 µM (inactive) | > 100 | > 100 µM (inactive) | > 100 µM (inactive) | > 100 µM (inactive) | > 100 µM (inactive) | 63.1 µM (inactive) | > 100 µM (inactive) | > 100 µM (inactive) | > 100 µM (inactive) | > 100 µM (inactive) |  | > 100 µM (inactive) | > 100 µM (inactive) | > 100 µM (inactive) | > 100 µM (inactive) | > 100 µM (inactive)
ClC(Cl)(Cl)C1CCOC1n1nc2ccccc2n1 (stereo not drawn) | > 100 µM (inactive) | > 100 µM (inactive) | > 100 µM (inactive) | > 100 µM (inactive) | > 100 |  | > 100 µM (inactive) | > 100 µM (inactive) | > 100 µM (inactive) | 28.2 µM (inactive) | > 100 µM (inactive) | > 100 µM (inactive) | > 100 µM (inactive) | > 100 µM (inactive) | > 100 µM (inactive) | > 100 µM (inactive) | > 100 µM (inactive) | > 100 µM (inactive) | > 100 µM (inactive) | > 100 µM (inactive)
CCOC(=O)c1nc2ccc(C(F)(F)F)cc2nc1NCc1ccc(OC)c(OC)c1 | 32.1 µM (inactive) | 67.8 µM (inactive) | 61.4 µM (inactive) | 63.5 µM (inactive) | 69 |  | 50.2 µM (inactive) | > 100 µM (inactive) | 65.6 µM (inactive) | 21.9 µM (inactive) | 58.2 µM (inactive) | 37.8 µM (inactive) | 50.1 µM (inactive) | 41.8 µM (inactive) | 58.3 µM (inactive) | 49.5 µM (inactive) | > 100 µM (inactive) | 37 µM (inactive) | 35.6 µM (inactive) | > 100 µM (inactive)
C/C(C=O)=N\Nc1cc(C)c2ccccc2n1 | 16.7 µM (inactive) | 15.7 µM (inactive) | 17.6 µM (inactive) | 6.52 µM (inactive) | 10 | 16.3 µM (inactive) | 20.6 µM (inactive) | 17.2 µM (inactive) | 12 µM (inactive) | 15.1 µM (inactive) | 15.2 µM (inactive) | 15.6 µM (inactive) | 16 µM (inactive) | 14 µM (inactive) | 11.2 µM (inactive) | 13.4 µM (inactive) | 20.9 µM (inactive) | 15.7 µM (inactive) |  | 15.5 µM (inactive)
COC1=CC(=O)N(C(=O)C2CSC(C(CO)NC(=O)c3csc(/C=N/O)n3)=N2)C1 (stereo not drawn) | > 100 µM (inactive) | > 100 µM (inactive) | > 100 µM (inactive) | 36.6 µM (inactive) | > 100 | > 100 µM (inactive) |  | > 100 µM (inactive) | > 100 µM (inactive) | 0.302 µM (active) | > 100 µM (inactive) | > 100 µM (inactive) | > 100 µM (inactive) |  | > 100 µM (inactive) | > 100 µM (inactive) | > 100 µM (inactive) | > 100 µM (inactive) | > 100 µM (inactive) | > 100 µM (inactive)
